Test results reported in ChEMBL document CHEMBL5465560, “Selectivity Literature for EUbOPEN Chemogenomic Library” (2024).

Assays:
[1] = target: Tyrosine-protein kinase Fgr (Homo sapiens) (UniProt P09769); conditions: at 10 µM
[2] = target: Mitogen-activated protein kinase kinase kinase 11 (Homo sapiens) (UniProt Q16584); assay: Selectivity interaction (KinomeScan (DiscoverX)) EUB0000092b MAP3K11; conditions: at 10 µM
[3] = target: cAMP-dependent protein kinase catalytic subunit alpha (Homo sapiens, UniProt P17612); conditions: at 10 µM
[4] = target: eIF-2-alpha kinase GCN2 (Homo sapiens) (UniProt Q9P2K8); assay: Selectivity interaction (ActivX KiNativ screen (kinase selectivity in THP-1 cell lysates)) EUB0000639a EIF2AK4; type: subcellular; conditions: lysate, at 0.01 µM
[5] = target: T1, Rhodopsin kinase GRK7 (Homo sapiens) (UniProt Q8WTQ7); assay: Selectivity interaction (KinomeScan (DiscoverX)) EUB0000607a GRK7; conditions: at 10 µM
T1 sequence (whole entry): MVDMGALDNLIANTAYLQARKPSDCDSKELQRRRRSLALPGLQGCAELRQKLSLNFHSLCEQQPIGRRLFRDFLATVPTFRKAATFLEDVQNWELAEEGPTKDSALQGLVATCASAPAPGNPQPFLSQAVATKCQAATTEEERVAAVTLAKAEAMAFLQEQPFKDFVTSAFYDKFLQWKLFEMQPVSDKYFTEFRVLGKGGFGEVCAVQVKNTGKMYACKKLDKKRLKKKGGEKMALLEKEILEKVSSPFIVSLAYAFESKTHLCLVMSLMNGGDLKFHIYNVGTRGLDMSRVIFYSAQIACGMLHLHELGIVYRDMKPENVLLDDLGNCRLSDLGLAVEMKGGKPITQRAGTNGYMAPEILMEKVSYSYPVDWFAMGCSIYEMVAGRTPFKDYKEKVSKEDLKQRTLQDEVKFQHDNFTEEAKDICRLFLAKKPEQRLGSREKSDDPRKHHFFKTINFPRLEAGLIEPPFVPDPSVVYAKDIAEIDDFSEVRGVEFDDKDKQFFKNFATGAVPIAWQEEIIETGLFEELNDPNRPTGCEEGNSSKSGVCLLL

[6] = target: T2, Serine/threonine-protein kinase TAO2 (Homo sapiens) (UniProt Q9UL54); assay: Selectivity interaction (Kinase panel (literature)) EUB0001199aCl TAOK2; conditions: at 1 µM
T2 sequence (whole entry): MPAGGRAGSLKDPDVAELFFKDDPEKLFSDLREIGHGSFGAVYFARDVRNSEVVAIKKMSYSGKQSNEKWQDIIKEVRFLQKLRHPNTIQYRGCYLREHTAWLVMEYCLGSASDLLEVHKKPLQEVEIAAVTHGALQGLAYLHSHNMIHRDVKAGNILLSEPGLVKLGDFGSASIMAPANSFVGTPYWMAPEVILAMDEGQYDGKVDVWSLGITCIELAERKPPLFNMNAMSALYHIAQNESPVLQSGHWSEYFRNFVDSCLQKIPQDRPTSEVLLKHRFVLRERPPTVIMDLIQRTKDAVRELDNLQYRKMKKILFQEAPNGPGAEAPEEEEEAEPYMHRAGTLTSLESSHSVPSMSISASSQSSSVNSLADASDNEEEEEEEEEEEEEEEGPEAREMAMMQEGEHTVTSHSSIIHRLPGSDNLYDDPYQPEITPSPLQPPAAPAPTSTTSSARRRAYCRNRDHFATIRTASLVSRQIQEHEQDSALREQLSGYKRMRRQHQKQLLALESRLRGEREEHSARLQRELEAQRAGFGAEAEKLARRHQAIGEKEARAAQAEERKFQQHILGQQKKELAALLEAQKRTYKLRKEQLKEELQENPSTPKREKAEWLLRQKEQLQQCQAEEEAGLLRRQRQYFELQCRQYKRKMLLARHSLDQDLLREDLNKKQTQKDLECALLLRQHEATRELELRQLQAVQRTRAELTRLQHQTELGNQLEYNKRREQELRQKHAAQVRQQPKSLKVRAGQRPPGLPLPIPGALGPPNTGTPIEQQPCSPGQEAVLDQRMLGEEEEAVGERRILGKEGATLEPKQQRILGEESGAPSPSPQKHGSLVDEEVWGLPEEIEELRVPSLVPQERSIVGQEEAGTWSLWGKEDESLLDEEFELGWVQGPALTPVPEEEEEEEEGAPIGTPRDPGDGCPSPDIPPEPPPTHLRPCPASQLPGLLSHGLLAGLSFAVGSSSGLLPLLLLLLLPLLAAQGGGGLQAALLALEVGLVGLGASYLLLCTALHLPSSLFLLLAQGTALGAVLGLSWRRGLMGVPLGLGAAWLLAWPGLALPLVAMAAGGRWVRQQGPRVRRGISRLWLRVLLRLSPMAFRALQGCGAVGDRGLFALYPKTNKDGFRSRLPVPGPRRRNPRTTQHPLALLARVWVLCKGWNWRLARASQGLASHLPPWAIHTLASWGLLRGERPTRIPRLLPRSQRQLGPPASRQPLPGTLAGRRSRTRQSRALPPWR

Chain of Mitogen-activated protein kinase kinase kinase 11 (Homo sapiens) (Q16584 whole entry, looked up): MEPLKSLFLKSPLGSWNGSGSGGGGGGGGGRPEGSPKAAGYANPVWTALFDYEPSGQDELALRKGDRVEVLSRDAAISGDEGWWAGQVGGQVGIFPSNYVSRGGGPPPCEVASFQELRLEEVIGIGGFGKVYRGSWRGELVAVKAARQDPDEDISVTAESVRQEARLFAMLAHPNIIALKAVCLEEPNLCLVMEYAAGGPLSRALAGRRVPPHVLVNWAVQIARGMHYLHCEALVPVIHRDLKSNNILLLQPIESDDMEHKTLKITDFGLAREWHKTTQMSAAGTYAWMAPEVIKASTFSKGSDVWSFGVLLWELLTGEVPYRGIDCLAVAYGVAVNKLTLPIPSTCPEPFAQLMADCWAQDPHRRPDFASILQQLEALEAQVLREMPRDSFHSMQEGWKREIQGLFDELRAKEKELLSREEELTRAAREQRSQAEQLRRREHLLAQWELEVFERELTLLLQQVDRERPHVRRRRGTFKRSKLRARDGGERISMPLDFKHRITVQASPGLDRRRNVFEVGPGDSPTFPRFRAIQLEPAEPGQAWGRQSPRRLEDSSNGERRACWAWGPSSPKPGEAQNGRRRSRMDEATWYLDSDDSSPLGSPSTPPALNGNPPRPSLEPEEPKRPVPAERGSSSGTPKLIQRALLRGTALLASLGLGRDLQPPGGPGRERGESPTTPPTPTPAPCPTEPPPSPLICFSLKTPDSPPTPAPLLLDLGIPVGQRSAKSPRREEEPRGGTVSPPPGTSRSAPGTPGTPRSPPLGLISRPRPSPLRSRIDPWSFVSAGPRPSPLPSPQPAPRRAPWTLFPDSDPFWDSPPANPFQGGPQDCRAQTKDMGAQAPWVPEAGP
Chain of eIF-2-alpha kinase GCN2 (Homo sapiens) (Q9P2K8 whole entry): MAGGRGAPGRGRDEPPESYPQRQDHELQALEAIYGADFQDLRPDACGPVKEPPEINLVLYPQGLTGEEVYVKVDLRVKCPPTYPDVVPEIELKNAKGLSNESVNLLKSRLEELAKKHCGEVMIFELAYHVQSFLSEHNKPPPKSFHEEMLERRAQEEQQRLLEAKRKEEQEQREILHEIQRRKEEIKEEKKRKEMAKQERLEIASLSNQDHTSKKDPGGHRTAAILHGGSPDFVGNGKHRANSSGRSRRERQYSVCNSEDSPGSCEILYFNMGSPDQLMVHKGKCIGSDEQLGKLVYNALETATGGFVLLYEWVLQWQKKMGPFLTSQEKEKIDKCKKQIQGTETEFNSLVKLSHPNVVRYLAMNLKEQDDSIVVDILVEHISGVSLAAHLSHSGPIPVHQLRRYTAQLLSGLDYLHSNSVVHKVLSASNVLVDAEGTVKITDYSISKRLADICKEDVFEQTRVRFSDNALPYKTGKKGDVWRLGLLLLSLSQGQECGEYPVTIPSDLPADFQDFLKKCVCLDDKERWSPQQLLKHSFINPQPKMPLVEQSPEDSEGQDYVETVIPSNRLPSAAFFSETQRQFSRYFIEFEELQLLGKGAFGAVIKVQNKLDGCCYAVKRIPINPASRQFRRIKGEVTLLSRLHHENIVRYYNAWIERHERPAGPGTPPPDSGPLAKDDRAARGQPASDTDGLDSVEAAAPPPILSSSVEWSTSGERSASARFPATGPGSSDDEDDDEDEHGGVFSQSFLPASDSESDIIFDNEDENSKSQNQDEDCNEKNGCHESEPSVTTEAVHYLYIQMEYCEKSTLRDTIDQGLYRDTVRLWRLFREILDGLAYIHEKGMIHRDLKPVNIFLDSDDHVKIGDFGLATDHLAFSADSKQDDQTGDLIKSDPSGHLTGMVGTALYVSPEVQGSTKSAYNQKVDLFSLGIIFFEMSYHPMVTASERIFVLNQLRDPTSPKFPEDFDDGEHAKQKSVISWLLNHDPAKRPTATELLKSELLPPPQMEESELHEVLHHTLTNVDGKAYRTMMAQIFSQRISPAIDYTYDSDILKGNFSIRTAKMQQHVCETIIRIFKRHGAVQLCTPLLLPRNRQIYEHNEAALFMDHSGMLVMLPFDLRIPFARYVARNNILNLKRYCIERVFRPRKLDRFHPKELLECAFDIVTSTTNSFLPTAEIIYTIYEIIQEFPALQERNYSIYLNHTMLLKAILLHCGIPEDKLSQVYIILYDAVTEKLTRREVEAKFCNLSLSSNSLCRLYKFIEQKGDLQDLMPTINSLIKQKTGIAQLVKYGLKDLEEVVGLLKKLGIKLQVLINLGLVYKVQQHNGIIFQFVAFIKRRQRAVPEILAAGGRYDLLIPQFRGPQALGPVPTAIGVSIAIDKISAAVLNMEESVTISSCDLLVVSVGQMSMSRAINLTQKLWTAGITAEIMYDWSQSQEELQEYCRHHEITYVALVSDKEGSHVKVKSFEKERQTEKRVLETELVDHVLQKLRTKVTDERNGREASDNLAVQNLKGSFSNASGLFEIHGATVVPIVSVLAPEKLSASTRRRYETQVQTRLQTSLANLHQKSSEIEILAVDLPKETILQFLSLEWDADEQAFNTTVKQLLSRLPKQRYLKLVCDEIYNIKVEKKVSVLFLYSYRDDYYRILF
Chain of Tyrosine-protein kinase Fgr (Homo sapiens) (P09769 2-529 limits assumed): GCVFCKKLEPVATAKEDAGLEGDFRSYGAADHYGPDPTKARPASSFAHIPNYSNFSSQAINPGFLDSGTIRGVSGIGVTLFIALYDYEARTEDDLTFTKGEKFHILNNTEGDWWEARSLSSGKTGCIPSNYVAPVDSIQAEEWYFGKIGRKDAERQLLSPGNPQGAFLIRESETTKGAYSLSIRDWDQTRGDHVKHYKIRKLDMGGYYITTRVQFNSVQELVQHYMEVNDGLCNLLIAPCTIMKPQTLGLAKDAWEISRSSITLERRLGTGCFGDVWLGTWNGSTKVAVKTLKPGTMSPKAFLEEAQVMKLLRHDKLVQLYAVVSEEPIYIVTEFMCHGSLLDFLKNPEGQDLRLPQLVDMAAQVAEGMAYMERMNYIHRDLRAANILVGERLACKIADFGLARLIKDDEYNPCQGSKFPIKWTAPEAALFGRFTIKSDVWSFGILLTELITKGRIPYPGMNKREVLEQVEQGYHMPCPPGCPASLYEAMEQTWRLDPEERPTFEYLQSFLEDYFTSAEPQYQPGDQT

SMILES: CCN(CC)CCCCNc1ncc2cc(-c3cc(OC)cc(OC)c3)c(NC(=O)NC(C)(C)C)nc2n1
- % of control [1]: 100%

SMILES: CCC(=O)N1CCN(c2ccc(-n3c(=O)ccc4cnc5ccc(-c6cnc7ccccc7c6)cc5c43)cc2C(F)(F)F)CC1
- % of control [2]: 69%

SMILES: Cc1cc([C@@H](C)Nc2ccccc2C(=O)O)c2nc(N3CCOCC3)cc(=O)n2c1 [AZD-6482]
- % of control [3]: 100%

SMILES: CC[C@@H]1[C@H](F)C(=O)N[C@@H]1COc1nccc2cc(C(N)=O)c(OC)cc12 [ZIMLOVISERTIB]
- % of inhibition [4]: 2%

SMILES: CNC(=O)Nc1ccc(-c2nc(N3CC4CCC(C3)O4)c3cnn(C4CCC5(CC4)OCCO5)c3n2)cc1
- % of control [5]: 91%

SMILES: CN1Cc2nccc(-c3cn(C)nc3-c3ccc(F)cc3)c2C1=O
- % of inhibition [6]: -1%
